Assay results taken from patent publication US5928915A, “CHO cell sialidase by recombinant DNA technology” (Genentech, Inc., priority 1997, dated 1999).

How the values were obtained:
CHO cell sialidase [1] = target: T1, CHO cell sialidase (Cricetulus griseus, UniProt Q64393); assay: Sialidase kinetic constants with soluble sialylglycoconjugate substrates; assay type: biochemical, Chinese hamster; conditions: for substrate cleavage in words: purified enzyme
T1 construct: The sialidase described was purified from the cell culture fluid of a single production cell line (CHO 14.16); endogenous in cells; host or cells: CHO 14.16 cells (purified from the cell culture fluid)
T1 sequence (Q64393 whole entry): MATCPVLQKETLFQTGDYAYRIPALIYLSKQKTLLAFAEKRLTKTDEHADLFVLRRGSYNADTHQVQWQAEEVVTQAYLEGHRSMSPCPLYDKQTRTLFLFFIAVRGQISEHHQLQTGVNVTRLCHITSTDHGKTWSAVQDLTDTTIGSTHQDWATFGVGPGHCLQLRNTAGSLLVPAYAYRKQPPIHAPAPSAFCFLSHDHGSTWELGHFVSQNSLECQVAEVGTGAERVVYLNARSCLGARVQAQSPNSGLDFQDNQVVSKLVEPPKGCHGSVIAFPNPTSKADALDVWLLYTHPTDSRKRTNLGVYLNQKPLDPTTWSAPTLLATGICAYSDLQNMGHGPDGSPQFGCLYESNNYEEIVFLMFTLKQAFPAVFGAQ
Protocol: Fluorescent sialidase assays: Standard assay conditions for monitoring the enzyme activity during purification using the fluorescent substrate analog are: 1.3 mM 4-MUNeu5Ac, 50 mM phosphate buffer, pH 6.8, 0.3 mg bovine serum albumin and varying amounts of enzyme in a total volume of 30 μl. After addition of enzyme the samples are incubated at 37° C. in a shaking water bath for 5 minutes. The reaction is terminated and the fluorescence of the liberated umbelliferone is enhanced by the addition of 2 ml of 80 mM glycine-carbonate buffer, pH 9.7. Quantification of the product is made by measuring the fluorescence of the samples with excitation at 365 nm and emission at 450 nm using a standard of 4-methyl umbelliferone. A unit of enzyme activity is defined as a μmol/min of sialic acid liberated.
(§1) Sialidase assays with natural substrates: When natural substrates are tested with the purified enzyme, the amount of released sialic acid is measured using the thiobarbituric acid assay as modified by Uchida [Uchida et al. J. Biochem., 82:1425 (1977)] using sialic acid as standard. The amount of sialic acid in control samples, which include a complete assay mixture incubated without added enzyme is subtracted from each determination. All samples are cleared by centrifugation (1,000×G, 10 min) prior to determining the absorbance at 540 nm.
Enzyme kinetic parameters: Assay conditions (time and added enzyme) are modified for each substrate so that initial reaction rates are measured. Kinetic parameters are obtained from double reciprocal plots of the substrate saturation curves [Segel, I. H. John Wiley, New York, Enzyme Kinetics, 18 (1975)].
Substrate specificity: Several classes of sialyl glycoconjugates were tested as substrates, TABLE II. […] Transferrin is isolated from human serum and contains only 2,6 linked sialic acid residues [Baenziger, J. U. The Plasma Proteins 2nd Ed. (Putnam, F. W., ed.) 272-398, Academic Press, New York (1984)].

CHO cell sialidase [2] = target: T1, CHO cell sialidase; assay: Sialidase activity toward gangliosides and colominic acid (thiobarbiturate assay); assay type: biochemical, Chinese hamster; parameters: key to Relative Activity: NR: no reaction products detected; conditions: for ganglioside hydrolysis in words: cholic acid as solubilizing agent; for Relative Activity: substrate 4 mM, initial rate, pH 6.0, cholic acid (0.05%) with lipid substrates, α-2,3 sialyllactose = 100
Protocol: as §1
Some gangliosides are degraded by the sialidase (TABLE III), although these substrates require the presence of cholic acid as a solubilizing agent in the assay for optimal activity.

[3] = target: cytosolic sialidase from rat muscle; conditions: cytosol, previously reported data, unit from footnote c; cited from earlier work
[4] = tested on: plasma membrane sialidase (adenovirus transformed kidney cells); conditions: cited from earlier work
[5] = tested on: lysosomal sialidase (fibroblasts); conditions: cited from earlier work
CHO cell sialidase [6] = target: T1, CHO cell sialidase; assay: Inhibition of CHO cell sialidase (competitive inhibitor study); assay type: biochemical, Chinese hamster

| Molecule | substrate cleavage in words (CHO cell sialidase [1]) | ganglioside hydrolysis in words (CHO cell sialidase [2]) | Relative Activity (CHO cell sialidase [2]) | further results |
| --- | --- | --- | --- | --- |
| Transferrin: isolated from human serum and contains only 2,6 linked sialic acid residues | cleaved much more slowly than that bound to recombinant human deoxyribonuclease I |  |  | Vmax (CHO cell sialidase [1]; apparent, standard assay conditions, average of duplicates, relative error about 10%): 2 µmol/min/mg; Km values compared (in words) (CHO cell sialidase [1]; transferrin versus deoxyribonuclease I): nearly identical |
| CC(=O)N[C@H]1[C@H]([C@H](O)[C@H](O)CO)O[C@@](O[C@H](CO)[C@@H](O)[C@@H]2OC(O)(C(=O)O)C[C@H](O)[C@H]2NC(C)=O)(C(=O)O)C[C@@H]1O (some centres unmarked) [Sialic acid dimer] | substrates for the enzyme |  |  |  |
| IV^3 NeuAc, II^3 (NeuAc)2 -GgOse4 Cer [GT1b] |  | hydrolyzed at comparable rates | 23% |  |
| CC(=O)N[C@H]1[C@H]([C@H](O)[C@H](O)CN=[N+]=[N-])OC(C(=O)O)=C[C@@H]1O [9-azido-Neu5Ac2en, 5-acetamido-2,6-anhydro-9-azido-3,5,9-trideoxy-D-glycero-D-galacto-non-2-enonic acid] |  |  |  | Ki [3]: 50 µM; Ki ([4]; adenovirus transformed kidney cells, plasma membrane, previously reported data, unit from footnote c): 10 µM; inhibition in words ([4]; plasma membrane sialidase): strongly inhibited; inhibition in words [5]: strongly inhibited; inhibition in words (CHO cell sialidase [6]): moderately inhibited |
| CC(=O)N[C@H]1[C@H]([C@H](O)[C@H](O)CO)O[C@@](O[C@H]2[C@@H](O)[C@@H](CO)O[C@@H](O[C@H]3[C@H](O)[C@@H](O)C(O)O[C@@H]3CO)[C@@H]2O)(C(=O)O)C[C@@H]1O (stereo partly drawn) [α-2,3 Sialyllactose] |  |  | 100% |  |
| II^3 NeuAc-GgOse4 Cer [GM1] |  | not substrates | NR |  |
| CC(=O)N[C@H]1[C@H]([C@H](O)[C@H](O)CO)O[C@@](O[C@H]2[C@@H](O)[C@@H](CO)O[C@@H](O[C@H]3[C@H](O)[C@@H](O)C(O)O[C@@H]3CO)[C@@H]2O)(C(=O)O)C[C@@H]1O (some centres unmarked) [sialyl lactose] | readily cleaved |  |  |  |
| IV^3 NeuAc, II^3 NeuAc-GgOse4 Cer [GD1a] |  | hydrolyzed at comparable rates | 21% |  |
| CC(=O)N[C@H]1[C@H]([C@H](O)[C@H](O)CSc2ccc(N=[N+]=[N-])cc2[N+](=O)[O-])OC(C(=O)O)=C[C@@H]1O [9-PANP-Neu5Ac2en, 9-S-(4'-azido-2'-nitro-phenyl)-5-acetamido-2,6 anhydro-9-thio-2,5,9-trideoxy-D-glycero-D-galacto-non-2-enonic acid] |  |  |  | inhibition in words (CHO cell sialidase [6]): weakly inhibited |
| II^3 NeuAc-LacCer [GM3] |  | hydrolyzed at comparable rates | 29% |  |
| II^3 (NeuAc)2 -GgOse4 Cer [GD1b] |  | not substrates | NR |  |
| Colominic Acid | hydrolyzed but at substantially reduced rates |  | 4% |  |
| II^3 NeuAc-GgOse3 Cer [GM2] |  | not substrates | NR |  |
